The numbers were not newly measured in patent publication US6432967B1 (Mayo Foundation for Medical Education & Research, priority 1995, dated 2002), which cites them from elsewhere.

The conditions of this data set: in vivo.

`Nc1ccc(O)c(C(=O)O)c1` [5-ASA, 5-aminosalicylate]: the fecal excretion entry is listed as “approximately 25%”.
